Calls of active or inactive are those of the source. The calls are words filed in the database; no cut-off is given here.
Columns and labels:
[1] = target: Kynurenine 3-monooxygenase (Rattus norvegicus) (UniProt O88867); assay: (§1) Inhibition of kynurenine-3-hydroxylase in rat liver homogenates assessed as effect on production of 3-hydroxy kynurenine incubated for 1 hr by HPLC; format: tissue-based
[2] = target: Kynurenine 3-monooxygenase (Rattus norvegicus, UniProt O88867); assay: as §1; format: tissue-based
Sequence of Kynurenine 3-monooxygenase (O88867 whole entry): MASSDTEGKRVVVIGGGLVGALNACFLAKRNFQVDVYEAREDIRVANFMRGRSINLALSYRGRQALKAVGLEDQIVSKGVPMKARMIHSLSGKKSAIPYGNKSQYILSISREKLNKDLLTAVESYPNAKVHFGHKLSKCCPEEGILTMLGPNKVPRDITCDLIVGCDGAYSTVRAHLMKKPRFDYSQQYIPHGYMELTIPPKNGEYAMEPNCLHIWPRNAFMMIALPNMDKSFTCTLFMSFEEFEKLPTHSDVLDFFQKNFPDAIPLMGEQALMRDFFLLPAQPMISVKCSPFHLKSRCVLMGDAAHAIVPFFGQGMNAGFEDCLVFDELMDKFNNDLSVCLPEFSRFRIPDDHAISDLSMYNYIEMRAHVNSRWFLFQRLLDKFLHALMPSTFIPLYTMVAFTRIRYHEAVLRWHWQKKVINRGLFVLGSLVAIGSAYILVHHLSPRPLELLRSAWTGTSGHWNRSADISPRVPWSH

[3] = target: Kynurenine 3-monooxygenase (Rattus norvegicus) (UniProt O88867); assay: Inhibition of kynurenine-3-hydroxylase in rat liver homogenates assessed as effect on production of 3-hydroxy kynurenine up to 125 uM incubated for 1 hr by HPLC; format: tissue-based
[4] = target: T1, Kynureninase (Rattus norvegicus) (UniProt P70712); assay: Inhibition of kynureninase in rat liver homogenates assessed as effect on production of anthranilic acid up to 125 uM incubated for 30 mins by HPLC; format: tissue-based
T1 sequence (whole entry): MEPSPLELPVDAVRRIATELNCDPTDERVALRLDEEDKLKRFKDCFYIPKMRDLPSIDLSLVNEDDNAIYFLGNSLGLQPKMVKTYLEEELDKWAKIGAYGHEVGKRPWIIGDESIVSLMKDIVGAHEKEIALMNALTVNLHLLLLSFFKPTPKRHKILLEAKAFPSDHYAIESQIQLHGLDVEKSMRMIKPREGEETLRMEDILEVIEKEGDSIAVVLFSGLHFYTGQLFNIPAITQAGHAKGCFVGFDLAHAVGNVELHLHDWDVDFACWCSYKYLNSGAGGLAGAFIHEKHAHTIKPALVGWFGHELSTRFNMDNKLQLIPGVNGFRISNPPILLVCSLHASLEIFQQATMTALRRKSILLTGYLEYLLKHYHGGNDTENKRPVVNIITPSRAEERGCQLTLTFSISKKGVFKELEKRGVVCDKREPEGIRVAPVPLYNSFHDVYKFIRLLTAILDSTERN

[5] = target: T1, Kynureninase (Rattus norvegicus); assay: Inhibition of kynureninase in rat liver homogenates assessed as effect on production of anthranilic acid at >125 uM incubated for 30 mins by HPLC; format: tissue-based
Rattus norvegicus [6] = assay: Effect on extracellular kynurenic acid in rat brain dosed at 200 mg/kg, ip by in-vivo microdialysis measured for 6 hrs post dose (reference value: 1.55 +/- 0.05 pg/ml); format: functional; conditions: route intraperitoneal
Rattus norvegicus [7] = assay: Inhibition of kynurenine-3-hydroxylase in rat brain assessed as increase in Increase in extracellular kynurenic acid level at 200 mg/kg, ip coadministered with 100 mg/kg kynurenine by in-vivo microdialysis measured within 25 mins post dose relative to untreated control; format: functional, organism-based
Rattus norvegicus [8] = assay: Inhibition of kynurenine-3-hydroxylase in rat brain assessed as increase in Increase in extracellular kynurenic acid level at 200 mg/kg, ip coadministered with 100 mg/kg kynurenine by in-vivo microdialysis measured at 135 mins post dose relative to untreated control; format: functional, organism-based
Rattus norvegicus [9] = assay: Inhibition of kynurenine-3-hydroxylase in rat brain assessed as increase in Increase in extracellular kynurenic acid level at 200 mg/kg, ip coadministered with 100 mg/kg kynurenine by in-vivo microdialysis measured up to 335 mins post dose relative to untreated control; format: functional
Rattus norvegicus [10] = assay: Inhibition of kynurenine-3-hydroxylase in rat brain assessed as increase in Increase in extracellular kynurenic acid level at 200 mg/kg, ip coadministered with 100 mg/kg kynurenine by in-vivo microdialysis measured at 5 hrs post dose relative to untreated control; format: functional, organism-based

Sequence of Kynurenine 3-monooxygenase (Rattus norvegicus) (O88867 whole entry, looked up): as the sequence (O88867 whole entry) above

Q: For CC(=O)NCCCO[C@@H](CN)c1cc(Br)c(OS(=O)(=O)O)c(Br)c1 [IANTHELLAMIDE A], which inhibition [1] is on record?
A: The inhibition was “Dose-dependent effect”.

Q: What about the IC50 [2] of the same compound?
A: Its IC50 is 1.5 µM.

Q: What about the inhibition [3] of the same compound?
A: Its inhibition is “Active”.

Q: And the inhibition [4]?
A: The inhibition was “inactive”.

Q: And the inhibition [5]?
A: The inhibition was “Active”.

Q: And the Activity (Rattus norvegicus [6])?
A: The Activity was 1.72 pg/µL.

Q: And the Activity (Rattus norvegicus [7])?
A: The Activity was “Active”.

Q: And the Activity (Rattus norvegicus [8])?
A: The Activity was “Active”.

Q: And the “fold change (FC)” value (Rattus norvegicus [9])?
A: The value was 20.

Q: What about the Activity (Rattus norvegicus [10]) of the same compound?
A: The Activity was “Active”.
